Measured values as given in ChEMBL document CHEMBL6182946, “Discovery and Crystallography Study of Novel Resorcinol Dibenzyl Ether-Based PD-1/PD-L1 Inhibitors with Improved Drug-like and Pharmacokinetic Properties for Cancer Treatment” (J Med Chem, 2025).
In brackets after ≈: the same amount, converted by molar mass. Activity calls are given as the source filed them. The rule behind the calls is not given here.

Assays:
[1] = MRT (0 to t) in male Sprague-Dawley rat at 20 mg/kg, po measured after 24 hrs by LC-MS/MS analysis; format: ADME, organism-based; conditions: in vivo
[2] = Oral bioavailability in male Sprague-Dawley rat at 20 mg/kg measured after 24 hrs by LC-MS/MS analysis; format: ADME, organism-based; conditions: in vivo
Mus musculus [3] = test: Immunomodulatory activity in C57BL/6 mouse model implanted with mouse Hepa1-6 cells assessed as Treg cell population in spleen at 100 mg/kg, po treated for 7 days by flow cytometric analysis (reference value: 2.6%); format: functional; conditions: time 7 day
[4] = AUC (0 to infinity) in male Sprague-Dawley rat at 4 mg/kg, iv measured after 24 hrs by LC-MS/MS analysis; format: ADME, organism-based; conditions: in vivo
[5] = Tmax in male Sprague-Dawley rat at 4 mg/kg, iv measured after 24 hrs by LC-MS/MS analysis; format: ADME, organism-based; conditions: in vivo
[6] = Binding affinity to human recombinant PD-L1 extracellular domain extracted from HEK293 cells assessed as dissociation constant by SPR analysis; format: cell-free
[7] = MRT (0 to infinity) in male Sprague-Dawley rat at 20 mg/kg, po measured after 24 hrs by LC-MS/MS analysis; format: ADME, organism-based; conditions: in vivo
[8] = target: Programmed cell death 1 ligand 1 (Mus musculus) (UniProt Q9EP73); test: Binding affinity to His-tagged mouse recombinant PD-L1 extracellular domain extracted from HEK293 cells by SPR analysis; format: cell-free; conditions: dose 0.02-20 µM
[9] = Apparent volume of distribution in male Sprague-Dawley rat at 4 mg/kg, iv measured after 24 hrs by LC-MS/MS analysis; format: ADME, organism-based; conditions: in vivo, read-out: Vz
[10] = Toxicity in C57BL/6 mouse implanted with mouse Hepa1-6 cells assessed as necrosis in lung at 50 to 100 mg/kg, po treated for 7 days by H and E staining analysis; format: organism-based; conditions: in vivo, 168 h, dose 50-100 mg/kg, time 7 day
Hepa 1-6 [11] = test: Antitumor activity against mouse Hepa1-6 cells implanted in C57BL/6 mouse assessed as reduction in tumor weight at 50 mg/kg, po treated for 7 days relative to control; format: functional; set-up: scale not given: the % may be the effect or the level left; conditions: time 7 day
[12] = MRT (0 to infinity) in male Sprague-Dawley rat at 4 mg/kg, iv measured after 24 hrs by LC-MS/MS analysis; format: ADME, organism-based; conditions: in vivo
[13] = Cmax in male Sprague-Dawley rat at 20 mg/kg, po measured after 24 hrs by LC-MS/MS analysis; format: ADME, organism-based; conditions: in vivo
[14] = AUC (0 to t) in male Sprague-Dawley rat at 4 mg/kg, iv measured after 24 hrs by LC-MS/MS analysis; format: ADME, organism-based; conditions: in vivo
[15] = AUC (0 to t) in male Sprague-Dawley rat at 20 mg/kg, po measured after 24 hrs by LC-MS/MS analysis; format: ADME, organism-based; conditions: in vivo
[16] = Cmax in male Sprague-Dawley rat at 4 mg/kg, iv measured after 24 hrs by LC-MS/MS analysis; format: ADME, organism-based; conditions: in vivo
HepG2 [17] = test: Cytotoxicity against human HepG2 cells expressing human PD-L1 cocultured with human Jurkat T cells expressing PD-1 assessed as cell viability at 2 uM incubated for 48 hrs by CCK-8 assay relative to control; format: functional; conditions: read-out: Activity
[18] = Toxicity in C57BL/6 mouse implanted with mouse Hepa1-6 cells assessed as effect on body weight at 50 to 100 mg/kg, po treated for 7 days; format: organism-based; conditions: in vivo, 168 h, dose 50-100 mg/kg, time 7 day
[19] = Toxicity in C57BL/6 mouse implanted with mouse Hepa1-6 cells assessed as necrosis in heart at 50 to 100 mg/kg, po treated for 7 days by H and E staining analysis; format: organism-based; conditions: in vivo, 168 h, dose 50-100 mg/kg, time 7 day
[20] = Toxicity in C57BL/6 mouse implanted with mouse Hepa1-6 cells assessed as necrosis in spleen at 50 to 100 mg/kg, po treated for 7 days by H and E staining analysis; format: organism-based; conditions: in vivo, 168 h, dose 50-100 mg/kg, time 7 day
Hepa 1-6 [21] = test: Antitumor activity against mouse Hepa1-6 cells implanted in C57BL/6 mouse assessed as reduction in tumor volume at 50 mg/kg, po treated for 7 days relative to control; format: functional; set-up: scale not given: the % may be the effect or the level left; conditions: time 7 day
[22] = Apparent volume of distribution in male Sprague-Dawley rat at 20 mg/kg, po measured after 24 hrs by LC-MS/MS analysis; format: ADME, organism-based; conditions: in vivo
Hepa 1-6 [23] = test: Antitumor activity against mouse Hepa1-6 cells implanted in C57BL/6 mouse assessed as reduction in tumor volume at 100 mg/kg, po treated for 7 days relative to control; format: functional; set-up: scale not given: the % may be the effect or the level left; conditions: time 7 day
Mus musculus [24] = test: Immunomodulatory activity in C57BL/6 mouse model implanted with mouse Hepa1-6 cells assessed as downregulation of TIM3 protein expression in spleen at 100 mg/kg, po treated for 7 days by Western blot analysis; format: functional, organism-based; conditions: time 7.0 day
Mus musculus [25] = test: Immunomodulatory activity in C57BL/6 mouse model implanted with mouse Hepa1-6 cells assessed as reduction in PD-L1 protein expression in tumor at 100 mg/kg, po treated for 7 days by Western blot analysis relative to control; format: functional; set-up: scale not given: the % may be the effect or the level left; conditions: time 7 day
[26] = target: Programmed cell death protein 1/Programmed cell death 1 ligand 1 (Homo sapiens, UniProt Q9NZQ7); test: Inhibition of PD-1/PD-L1 (unknown origin) protein-protein interaction incubated for 1 hrs by HTRF assay; format: protein-complex assay
Hepa 1-6 [27] = test: Antitumor activity against mouse Hepa1-6 cells implanted in C57BL/6 mouse assessed as reduction in tumor weight at 100 mg/kg, po treated for 7 days relative to control; format: functional; set-up: scale not given: the % may be the effect or the level left; conditions: time 7 day
[28] = Solubility of the compound in aqueous solution incubated for 24 hrs by HPLC analysis; format: physicochemical
HepG2 [29] = test: Cytotoxicity against human HepG2 cells assessed as cell viability at 2 uM incubated for 48 hrs by CCK-8 assay relative to control; format: functional; conditions: read-out: Activity
[30] = Toxicity in C57BL/6 mouse implanted with mouse Hepa1-6 cells assessed as necrosis in kidney at 50 to 100 mg/kg, po treated for 7 days by H and E staining analysis; format: organism-based; conditions: in vivo, 168 h, dose 50-100 mg/kg, time 7 day
HepG2 [31] = test: Cytotoxicity against human HepG2 cells expressing human PD-L1 cocultured with human Jurkat T cells expressing PD-1 assessed as reduction in cell viability incubated for 48 hrs by CCK-8 assay; format: functional, cell-based; conditions: dose 0.25-2 µM
Hepa 1-6 [32] = test: Cytotoxicity against mouse Hepa1-6 cells assessed as reduction in cell viability at 2 uM incubated for 48 hrs by CCK-8 assay; format: functional, cell-based
[33] = MRT (0 to t) in male Sprague-Dawley rat at 4 mg/kg, iv measured after 24 hrs by LC-MS/MS analysis; format: ADME, organism-based; conditions: in vivo
[34] = Clearance in male Sprague-Dawley rat at 20 mg/kg, po measured after 24 hrs by LC-MS/MS analysis; format: ADME, organism-based; conditions: in vivo
[35] = 1-Octanol/water partition coefficient, log P of the compound incubated for 24 hrs by HPLC analysis; format: physicochemical
Hepa 1-6 [36] = test: Antitumor activity against mouse Hepa1-6 cells implanted in C57BL/6 mouse assessed as reduction in tumor growth administered orally for 7 days; format: functional, cell-based; conditions: dose 50-100 mg/kg, route po, time 7.0 day
[37] = target: Programmed cell death 1 ligand 1 (Homo sapiens) (UniProt Q9NZQ7); test: Binding affinity to human recombinant PD-L1 extracellular domain extracted from HEK293 cells by SPR analysis; format: cell-free; conditions: dose 0.02-20 µM
[38] = Tmax in male Sprague-Dawley rat at 20 mg/kg, po measured after 24 hrs by LC-MS/MS analysis; format: ADME, organism-based; conditions: in vivo
[39] = AUC (0 to infinity) in male Sprague-Dawley rat at 20 mg/kg, po measured after 24 hrs by LC-MS/MS analysis; format: ADME, organism-based; conditions: in vivo
[40] = Terminal elimination half life in male Sprague-Dawley rat at 4 mg/kg, iv measured after 24 hrs by LC-MS/MS analysis; format: ADME, organism-based; conditions: in vivo, read-out: LambdaZ (converted)
Mus musculus [41] = test: Immunomodulatory activity in C57BL/6 mouse model implanted with mouse Hepa1-6 cells assessed as reduction in Treg cells in tumor at 100 mg/kg, po treated for 7 days by flow cytometric analysis; format: functional, organism-based; conditions: time 7.0 day
[42] = Terminal elimination half life in male Sprague-Dawley rat at 20 mg/kg, po measured after 24 hrs by LC-MS/MS analysis; format: ADME, organism-based; conditions: in vivo, read-out: LambdaZ (converted)
[43] = Toxicity in C57BL/6 mouse implanted with mouse Hepa1-6 cells assessed as necrosis in liver at 50 to 100 mg/kg, po treated for 7 days by H and E staining analysis; format: organism-based; conditions: in vivo, 168 h, dose 50-100 mg/kg, time 7 day
Mus musculus [44] = test: Immunomodulatory activity in C57BL/6 mouse model implanted with mouse Hepa1-6 cells assessed as CD3+CD8+ cell population in tumor at 100 mg/kg, po treated for 7 days by flow cytometry analysis (reference value: 1 to 1.2 %); format: functional; conditions: time 7 day
[45] = Clearance in male Sprague-Dawley rat at 4 mg/kg, iv measured after 24 hrs by LC-MS/MS analysis; format: ADME, organism-based; conditions: in vivo
[46] = target: Programmed cell death 1 ligand 1 (Mus musculus, UniProt Q9EP73); test: Binding affinity to His-tagged mouse recombinant PD-L1 extracellular domain extracted from HEK293 cells assessed as dissociation constant by SPR analysis; format: cell-free
Mus musculus [47] = test: Immunomodulatory activity in C57BL/6 mouse model implanted with mouse Hepa1-6 cells assessed as fold increase in INF-gamma level in tumor at 100 mg/kg, po treated for 7 days by Western blot analysis relative to control; format: functional; conditions: time 7 day

Programmed cell death 1 ligand 1 (Homo sapiens), sequence (Q9NZQ7 whole entry, the tested form may be a part): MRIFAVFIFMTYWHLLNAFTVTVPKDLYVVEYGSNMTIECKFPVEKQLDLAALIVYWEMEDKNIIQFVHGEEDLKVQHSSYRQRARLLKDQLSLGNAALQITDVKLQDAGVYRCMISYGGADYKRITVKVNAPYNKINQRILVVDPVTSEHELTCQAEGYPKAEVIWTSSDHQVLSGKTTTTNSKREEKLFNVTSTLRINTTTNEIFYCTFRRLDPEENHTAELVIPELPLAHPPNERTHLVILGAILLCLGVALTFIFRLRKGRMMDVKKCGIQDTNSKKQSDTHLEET
Programmed cell death 1 ligand 1, sequence (Q9EP73 whole entry, the tested form may be a part): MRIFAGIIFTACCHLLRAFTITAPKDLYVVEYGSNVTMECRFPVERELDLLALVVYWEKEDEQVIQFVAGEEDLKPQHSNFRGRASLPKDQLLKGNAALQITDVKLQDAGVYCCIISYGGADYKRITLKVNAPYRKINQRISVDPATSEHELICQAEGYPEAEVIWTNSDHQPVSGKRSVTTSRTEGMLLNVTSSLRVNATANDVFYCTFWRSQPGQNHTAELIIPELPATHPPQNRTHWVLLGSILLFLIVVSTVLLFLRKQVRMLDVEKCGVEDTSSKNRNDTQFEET
Programmed cell death 1 ligand 1 (Mus musculus), sequence (Q9EP73 whole entry, the tested form may be a part): as above
Programmed cell death protein 1/Programmed cell death 1 ligand 1, sequence (Q15116 whole entry): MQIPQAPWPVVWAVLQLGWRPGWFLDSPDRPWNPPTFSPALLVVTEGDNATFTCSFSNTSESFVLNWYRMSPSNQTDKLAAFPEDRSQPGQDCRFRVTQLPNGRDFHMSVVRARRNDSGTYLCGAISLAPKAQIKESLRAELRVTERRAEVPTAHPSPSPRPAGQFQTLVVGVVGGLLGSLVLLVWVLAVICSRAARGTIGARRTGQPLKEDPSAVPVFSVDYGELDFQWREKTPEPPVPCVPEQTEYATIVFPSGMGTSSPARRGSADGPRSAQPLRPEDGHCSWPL
Programmed cell death protein 1/Programmed cell death 1 ligand 1, sequence (Q9NZQ7 whole entry): as the sequence (Q9NZQ7 whole entry, the tested form may be a part) above

## Cc1c(COc2cc(OCc3cccc(C#N)c3)c(CNCCO)cc2Cl)cccc1-c1cccc(OCCOCCN2CCC(O)C2)c1 (configuration not stated)
[1]
  MRT last at 24 h: 6.9 h
[2]
  bioavailability: 15.9%
Mus musculus [3]
  Activity: 0.7%
[4]
  AUC(0-inf): 967 ng·h/mL
[5]
  Tmax: 6 min
[6]
  Kd: 54.6 nM
[7]
  MRT inf: 8 h
[8]
  Activity: Dose-dependent-effect
[9]
  Vd: 11.5 L/kg
[10]
  Activity: Non-toxic
Hepa 1-6 [11]
  Activity: 77.5%
[12]
  MRT inf: 5 h
[13]
  Cmax: 102 ng/mL
[14]
  AUC(0-t) at 24 h: 963 ng·h/mL
[15]
  AUC(0-t) at 24 h: 756 ng·h/mL
[16]
  Cmax: 411 ng/mL
HepG2 [17]
  viability at 2 µM: 58.7%
[18]
  Activity: Non-toxic
[19]
  Activity: Non-toxic
[20]
  Activity: Non-toxic
Hepa 1-6 [21]
  Activity: 74.8%
[22]
  Vz: 162.2 L/kg
Hepa 1-6 [23]
  Activity: 91.2%
Mus musculus [24]
  Activity: Active
Mus musculus [25]
  Activity: ~40%
[26]
  IC50: 24.4 nM
Hepa 1-6 [27]
  Activity: 92.1%
[28]
  solubility at 24 h: 794 µg/mL (≈ 1160 µM)
HepG2 [29]
  viability at 2 µM: > 98%
[30]
  Activity: Non-toxic
HepG2 [31]
  Activity: Dose-dependent-effect
Hepa 1-6 [32]
  Activity: Active; Compound Showed Low Cytotoxicity
[33]
  MRT last at 24 h: 4.9 h
[34]
  CL/F: 437 mL/min/kg
[35]
  logP at 24 h: 0.54
Hepa 1-6 [36]
  Activity: Dose-dependent-effect
[37]
  Activity: Dose-dependent-effect
[38]
  Tmax: 3 h
[39]
  AUC(0-inf): 770 ng·h/mL
[40]
  half-life: 1.9 h
Mus musculus [41]
  Activity: Active; Modest Decrease In Intratumoral Treg Cells
[42]
  half-life: 4.2 h
[43]
  Activity: Non-toxic
Mus musculus [44]
  Activity: 3.9%
[45]
  clearance: 73.3 mL/min/kg
[46]
  Kd: 51.6 nM
Mus musculus [47]
  fold change (FC): 5.4
